Values after ≈ are worked out from the molar mass of the structure shown. “Also recorded” adds a separate entry of the source.
Tests used:
[1] = test system: P388/CPT CPT-resistant murine leukemia cells; experiment: MTT growth inhibition, P388/CPT; type: cell-based; conditions: Mus musculus, 72 h, 3 days, read-out: Growth Inhibitory Activity IC50
Procedure: Camptothecin was used as a control to test the anti-cancer efficacy of the novel camptothecin analogs of the present invention.
Murine B16 melanoma cell line was grown in RPMI 1640 medium supplemented with 10% heat-inactivated fetal bovine serum, 2 mM L-glutamine, 50 units/mL penicillin, 50 μg/mL streptomycin, 25 μg/mL gentamicin, 0.75% sodium bicarbonate 10 mM HEPES buffer (pH 7.4), and 0.06 mg/mL AntiPPLO. Murine P388 leukemic cell line and human HT-29 colon adenocarcinoma line were maintained in RPMI 1640 medium supplemented with 10% heat-inactivated fetal bovine serum. […] MCF-7M human breast adenocarcinoma was maintained in IMEM supplemented with 5% non heat-inactivated fetal bovine serum and 1 nM insulin.
(§1) [See "Rapid Colorimetric Assay For Cellular Growth And Survival: Application To Proliferation And Cytotoxicity Assays," J. Immun. Meth. 65:55 (1983)]. The assay utilizes a tetrazolium salt to quantitatively measure mammalian cell survival and proliferation by colorimetric methods. In particular, MTT, a pale yellow compound with minimal absorbance, is incubated with cancerous cells in addition to (or in the absence of) a particular camptothecin analog. Living cells with active mitochondrial enzymes metabolize the MTT into a dark blue/purple formazan product with high absorbance. The exact procedure used to test the camptothecin analogs of the present invention is described below.
(§2) Exponentially growing cells (1-2×10^3 cells, unless specified otherwise) in 0.1 mL medium were seeded on day 0 in a 96-well microtiter plate. On day 1, 0.1 mL aliquots of medium containing graded concentrations of test analogs were added to the cell plates. After incubation at 37° C. in a humidified incubator for 3 days (P388, P388/CPT, B16) or 6 days (HT-29, MCF-7M), the plates were centrifuged briefly and 100 μL of the growth medium was removed. Cell cultures were incubated with 50 μL of 3-(4,5-dimethylthiazol-2-yl)-2,5-diphenyl-tetrazolium bromide [MTT, 1 mg/mL in Dulbecco's phosphate buffered saline (PBS)] for 4 hr at 37° C. The resulting purple formazan precipitate was solubilized with 200 μL of 0.04 N HCl in isopropyl alcohol. Absorbance was monitored in a BioRad Model 3550 Microplate Reader at a test wavelength of 570 nm and a reference wavelength of 630 nm. The absorbance is transferred to a PC 486 computer. The IC50 values were determined by a computer program (EZ-ED50) that fits all of the data to the following four-parameter logistic equation:
Y=(Amax -Amin)/(1+[X/IC^50 ])^n +Amin
where Amax is the absorbance of control cells, Amin is the absorbance of cells in the presence of highest agent concentration, IC^50 is the concentration of agent that inhibits the cell growth by 50% of control cells (based on the absorbance) and n is the slope of the curve.

murine P388 leukemia = experiment: Murine P388 leukemia model in vivo; parameters: species or system mouse (B6D2F1); conditions: for Survivors: 30-day; for 30-day survivors (cures): 100 mg/kg; for toxic deaths: at the high dose; for efficacy vs P388 leukemia: i.p. five day schedule
Procedure: For the B16 melanoma model, the following procedure was used. B6D2F1 mice receive i.p. inocula of B16 murine melanoma brei prepared from B16 tumors growing s.c. in mice (day 0). […] If dosing information for agents is not available, the maximum tolerated dose (MTD) is determined in initial dose finding experiments in non-tumored mice.
The mean survival times of all groups are calculated, and results are expressed as mean survival of treated mice/mean survival of control mice (T/C)×100%. A T/C value of 150 means that the mice in the treated group lived 50% longer than those of the control group; this is sometimes referred to as the increase in life span or ILS value.
For the P388 leukemia model, the procedure followed is exactly the same as the aforementioned B16 model. The tumor inoculum is prepared by removing ascited fluid containing P388 cells from tumored B6D2F1 mice, centrifuging the cells, and then resuspending the leukemia cells in saline. Mice receive 1×10^6 P388 cells i.p. on day 0.

tumor cells = experiment: MTT growth inhibition across tumor cell lines (P388, P388/CPT, B16, HT-29, MCF-7M); type: cell-based; conditions: for growth inhibitory activity: comparison in words
Procedure: as §1
as §2, with “equation: […]” for “equation:”

[2] = lower dose of 100 mg/kg (so in the source)

Structure (SMILES)	IC50 [1] [µg/mL]	30-day survivors (cures) (murine P388 leukemia)	T/C (mean survival treated/control) (murine P388 leukemia; 100 mg/kg i.p. daily×5) [%]	Tox Deaths (murine P388 leukemia; 100 mg/kg i.p. daily×5)	ΔWeight (%) (murine P388 leukemia; 100 mg/kg i.p. daily×5)	Survivors (murine P388 leukemia; 100 mg/kg i.p. daily×5)	toxic deaths (murine P388 leukemia)	weight loss (murine P388 leukemia; at the high dose (MTD))	efficacy vs P388 leukemia (murine P388 leukemia; in words)	growth inhibitory activity (tumor cells)	T/C (mean survival treated/control) (murine P388 leukemia; 20 mg/kg i.p. daily×5) [%]	Tox Deaths (murine P388 leukemia; 20 mg/kg i.p. daily×5)	ΔWeight (%) (murine P388 leukemia; 20 mg/kg i.p. daily×5)	Survivors (murine P388 leukemia; 20 mg/kg i.p. daily×5)	other results
CC[C@@]1(O)C(=O)OCc2c1cc1n(c2=O)Cc2c-1nc1ccccc1c2CO[C@@H]1C=C[C@H](O[C@H]2O[C@H](CO)[C@@H](O)[C@H](O)[C@H]2O)[C@@H](CO)O1 [HAR6, 7-[4-O-(α-D-glucopyranosyl)-2,3-dideoxy-α-D-erythro-hex-2-enopyranosyl]-oxymethylcamptothecin]	28.4 (≈ 42.5 µM)	three	320	0/10	-12.2%	3/10	no toxic deaths occurred	12%-16	high, curative efficacy	–	–	–	–	–	T/C (mean survival treated/control) (murine P388 leukemia; 50 mg/kg i.p. daily×5): 225%; Tox Deaths (murine P388 leukemia; 50 mg/kg i.p. daily×5): 0/10; ΔWeight (%) (murine P388 leukemia; 50 mg/kg i.p. daily×5): -3.5%; Survivors (murine P388 leukemia; 50 mg/kg i.p. daily×5): 1/10; T/C (murine P388 leukemia; [2]): 225%; cures (murine P388 leukemia; [2]): one
CC[C@@]1(O)C(=O)OCc2c1cc1n(c2=O)Cc2c-1nc1ccccc1c2CO[C@@H]1C=C[C@H](O[C@H]2O[C@H](COC(C)=O)[C@@H](OC(C)=O)[C@H](OC(C)=O)[C@H]2OC(C)=O)[C@@H](COC(C)=O)O1 [HAR5, 7-[6-O-acetyl-4-O-(2,3,4,6-tetra-O-acetyl-α-D-glucopyranosyl)-2,3-dideoxy-α-D-erythro-hex-2-enopyranosyl]oxymethylcamptothecin]	21.2 (≈ 24.1 µM)	one	141	0/10	+0.7%	1/10	–	–	less efficacious compared to the other three compounds	more cytotoxic than camptothecin hydroxyl maltal (HAR6)	–	–	–	–	T/C (mean survival treated/control) (murine P388 leukemia; 200 mg/kg i.p. daily×5): 161%; Tox Deaths (murine P388 leukemia; 200 mg/kg i.p. daily×5): 0/10; ΔWeight (%) (murine P388 leukemia; 200 mg/kg i.p. daily×5): -2.0%; Survivors (murine P388 leukemia; 200 mg/kg i.p. daily×5): 0/10; weight loss (murine P388 leukemia; at its solubility-limiting dose, in words): only insignificant weight loss
CC[C@@]1(O)C(=O)OCc2c1cc1n(c2=O)Cc2c-1nc1ccccc1c2CO[C@@H]1C=C[C@H](OC(C)=O)[C@@H](COC(C)=O)O1 [HAR4, 7-[4,6-di-O-acetyl-2,3-dideoxy-α-D-erythro-hex-2-enopyranosyl]oxymethylcamptothecin]	7.04 (≈ 11.9 µM)	–	–	–	–	–	no toxic deaths occurred	12%-16	high, curative efficacy; also recorded: excellent activity vs. P388	quite similar to those of camptothecin	206	0/10	-14.0	2/10	cures (murine P388 leukemia; 10 mg/kg): two; T/C (mean survival treated/control) (murine P388 leukemia; 10 mg/kg i.p. daily×5): 201%; Tox Deaths (murine P388 leukemia; 10 mg/kg i.p. daily×5): 0/10; ΔWeight (%) (murine P388 leukemia; 10 mg/kg i.p. daily×5): -0.6%; Survivors (murine P388 leukemia; 10 mg/kg i.p. daily×5): 2/10; cures (murine P388 leukemia; 20 mg/kg): two; potency in inhibiting growth of tumor cells (tumor cells; more potent than HAR7): 2-3 fold
CC[C@@]1(O)C(=O)OCc2c1cc1n(c2=O)Cc2c-1nc1ccccc1c2CO[C@@H]1C=C[C@H](O)[C@@H](CO)O1 [HAR7, 7-[2,3-dideoxy-α-D-erythro-hex-2-enopyranosyl]-oxymethylcamptothecin]	18.7 (≈ 36.9 µM)	–	–	–	–	–	no toxic deaths occurred	12%-16	high, curative efficacy; also recorded: excellent activity vs. P388	quite similar to those of camptothecin	192	0/10	-1.7	0/10	T/C (mean survival treated/control) (murine P388 leukemia; 40 mg/kg i.p. daily×5): 223%; Tox Deaths (murine P388 leukemia; 40 mg/kg i.p. daily×5): 0/10; ΔWeight (%) (murine P388 leukemia; 40 mg/kg i.p. daily×5): -16.0%; Survivors (murine P388 leukemia; 40 mg/kg i.p. daily×5): 3/10; 30-day survivors (murine P388 leukemia; 40 mg/kg, high dose): three

From patent US5932709A (University of Michigan, priority 1997, dated 1999)
